From patent publication US9951226B2, “Compound based on cyanine scaffold for diagnosis sepsis by selectively detect glutathione” (EWHA UNIVERSITY—INDUSTRY COLLABORATION FOUNDATION, priority 2014, dated 2018) come the findings set out here.

The nature of assay [1]: Absorption and fluorescence spectrum according to the concentration of glutathione. The class given is biochemical. The procedure:
10 μM of the compound prepared in Example 2 and glutathione were added to HEPES (4-(2-hydroxyethyl)piperazine-1-ethanesulfonic acid) buffer (10 mM, pH=7.4) containing 10% dimethylsulfoxide (DMSO) with raising slowly the concentration of glutathione from 0 to 50 μM, during which the changes of absorption spectrum were observed using UV-vis sepctra (Scinco 3000 spectrophotometer, 1 cm quartz cell) at 25° C.
The following experiment was performed by the same manner as described in Experimental Example <4-1> except that fluorescence spectrum was observed by using RF-5310/PC fluorescence spectrometer (Shimada, 1 cm quartz cell) instead of observing absorption spectrum via UV-vis sepctra (Scinco 3000 spectrophotometer, 1 cm quartz cell) (λex=730 nm, λem=736 nm, slit:10/10 nm).
10 μM of the compound prepared in Example 3 and glutathione were added to HEPES (4-(2-hydroxyethyl)piperazine-1-ethanesulfonic acid) buffer (10 mM, pH=7.4) containing 10% dimethylsulfoxide (DMSO) with raising slowly the concentration of glutathione from 0 to 100 μM, during which the changes of absorption spectrum were observed using UV-vis sepctra (Scinco 3000 spectrophotometer, 1 cm quartz cell) at 25° C.
The following experiment was performed by the same manner as described in Experimental Example <16-1> except that fluorescence spectrum was observed by using RF-5310/PC fluorescence spectrometer (Shimada, 1 cm quartz cell) instead of observing absorption spectrum via UV-vis sepctra (Scinco 3000 spectrophotometer, 1 cm quartz cell) (λex=730 nm, λem=736 nm, slit:10/10 nm).

A short description of assay [2]: Absorption and fluorescence spectrum over the time after reaction with glutathione. The class given is biochemical. Particulars: 10 μM compound, 100 μM glutathione, HEPES pH 7.4, 10% DMSO. The procedure:
10 μM of the compound prepared in Example 2 and 100 μM of glutathione were added to HEPES (4-(2-hydroxyethyl)piperazine-1-ethanesulfonic acid) buffer (10 mM, pH=7.4) containing 10% dimethylsulfoxide (DMSO), followed by observation of absorption spectrum at 25° C. using UV-vis sepctra (Scinco 3000 spectrophotometer, 1 cm quartz cell) over the time. The results are shown in FIG. 8 (spectrum was photographed every 0.5 minute).
The following experiment was performed by the same manner as described in Experimental Example <5-1> except that fluorescence spectrum was observed by using RF-5310/PC fluorescence spectrometer (Shimada, 1 cm quartz cell) instead of observing absorption spectrum via UV-vis sepctra (Scinco 3000 spectrophotometer, 1 cm quartz cell) (λex=730 nm, λem=736 nm, slit:10/10 nm). The results are shown in FIG. 9 (spectrum was photographed every 0.5 minute).

For another assay, the system named is HeLa cells. Description: Changes of glutathione concentration in the presence of an oxidant (H2O2), HeLa cells. The class given is cell-based, human. The protocol: 100 μM of H2O2, the oxidant, was treated to HeLa cells prepared in Experimental Example 2 containing glutathione, the anti-oxidant, at 37° C. for 30 minutes to induce the changes of glutathione level. 20 μM of the compound prepared in Example 2 was added thereto, followed by culture at 37° C. for 20 minutes. The cells were washed with DPBS (Dulbecco's Phosphate Buffered Saline) three times to eliminate the remaining compound, followed by imaging with confocal laser scanning microscope (Fluoview 1200, Olympus, Japan). At this time, the emitting filter with the excitation wavelength of 635 nm and the band-path (BP) of 655˜755 nm was used.

The test system of another assay is C57BL/6 mouse. Description: Detection of glutathione in a mouse model with acetaminophen (APAP), IVIS imaging. The class given is in vivo. The protocol: 200 μL of HEPES (4-(2-hydroxyethyl)piperazine-1-ethanesulfonic acid) buffer (10 mM, pH=7.4) containing 300 mg/kg of acetaminophen (APAP) known as a pain killer was administered to each C57BL/6 mouse (7˜8 weeks old, female, Jackson Laboratory) via intravenous injection. The said APAP works as a pain killer in vivo when administered at a proper dose, but when treated at over-dose, it can damage organs and also reduce in vivo glutathione. 20 minutes later, 200 μL of HEPES (4-(2-hydroxyethyl)piperazine-1-ethanesulfonic acid) buffer (10 mM, pH=7.4) containing 50 mM of the compound prepared in Example 2 was administered to the mouse via intravenous injection. 20 minutes later, the strength of fluorescence was observed by using the epifluorescence mode of In Vivo Imaging System (IVIS) spectrum (Caliper LifeSciences, USA) equipped with the filter having the wavelengths of 675 nm and 720 nm [the strength of fluorescence was measured by Living Image Software 4.3.1 (Caliper Life Sciences, USA)].

In assay [3] the test system is neutrophils of peritoneal cells. The assay is described as follows: Capacity of diagnosing sepsis: FACS of neutrophils of peritoneal cells from CLP sepsis mouse. The class given is cell-based. Particulars: 8 hours, 10 μM compound. The protocol: According to a reference (J Vis Exp. 2011 May 7; (51). pii: 2860. doi: 10.3791/2860), C57BL/6 mouse (7˜8 weeks old, female, Jackson Laboratory) was induced with sepsis by performing CLP (cecal ligation and puncture). 8 hours later, peritoneal cells were extracted from the mouse. The cells were centrifuged and reacted to the neutrophil marker Ly6G (eFluor®450, eBioscience, Cat No. 48-5931) and 10 μM of the compound prepared in Example 2 at room temperature. 25 minutes later, 1 mL of 3% fetal bovine serum (FBS) was added thereto, followed by centrifugation at 3000 rpm for 5 minutes to wash the cells. The cells were resuspended in […] of HEPES (4-(2-hydroxyethyl)piperazine-1-ethanesulfonic acid) buffer (10 mM, pH=7.4), followed by FACS (Fluorescence Activated Cell Sorting) using the data analysis software FlowJo to observe the peaks (The setting for Alexa flour 700 fluorescence was hired, BD FACSVerse™).

Another assay deals with neutrophils. The assay is described as follows: Capacity of diagnosing sepsis: bone marrow neutrophils infected with GFP tagged Pseudomonas Aeruginosa 01 (PA01). In kind it is cell-based, mouse. The procedure: Neutrophils were extracted from the bone marrow of C57BL/6 mouse (7˜8 weeks old, female, Jackson Laboratory). The cells were infected with green fluorescent protein (GFP) tagged Pseudomonas Aeruginosa 01 (PA01) that is the causing bacteria of sepsis. 24 hours later, 10 μM of the compound prepared in Example 2 was added thereto, followed by reaction at 37° C. for 20 minutes. At this time, the emitting filter with the excitation wavelength of 635 nm and the band-path (BP) of 655˜755 nm was used.

The mark [4] stands for this setting: 10 μM compound, glutathione not added.
The mark [5] stands for this setting: 10 μM compound, glutathione raised from 0 to 50 μM.

`CCCN1/C(=C/C=C2\CCCC(/C=C/C3=[N+](CCC)c4ccccc4C3(C)C)=C2N2CCN(S(=O)(=O)c3cccc4c(N(C)C)cccc34)CC2)C(C)(C)c2ccccc21.[I-]` [Example 2, 2-((E)-2-((E)-3-((E)-2-(3,3-dimethyl-1-propylindolin-2-ylidene)ethylidene)-2-(4-(5-(dimethylamino)naphthalene-1-ylsulfonyl)piperazine-1-yl)cyclohex-1-enyl)binyl)-3,3-dimethyl-1-propyl-3H-indolium iodide]: the “absorption strength at 750 nm” value in assay [1] (setting [4]) is “weak absorption strength”. Further, the “fluorescence signal at 736 nm” value in assay [1] (setting [4]) is recorded as “weak fluorescence signal”; in assay [1] (setting [5]) it was “getting stronger”. Besides, the “absorption signal at 750 nm” value in assay [1] (setting [5]) was “getting stronger”. For the same molecule, the “dependence of the reaction on glutathione concentration” value in assay [1] (conclusion from absorption and fluorescence spectra) is listed as “glutathione dose-dependent”. In addition, the “time to maximum fluorescence signal at 736 nm” value in assay [2] was at most 15 min. Besides, the “time to minimum absorption signal at 750 nm” value in assay [2] (25° C.) is at most 15 min. Moreover, the “red fluorescence under confocal laser scanning microscope” value is “red fluorescence was not observed” in the assay with HeLa cells (HeLa cells pre-treated with 100 μM H2O2, 20 μM compound) and “strong red fluorescence” in the assay with HeLa cells (HeLa cells, 20 μM compound, 20 minutes). For the same molecule, the “reaction to oxidized glutathione, glutathione disulfide (GSSG)” value in the assay on HeLa cells (HeLa cells, H2O2) was “did not react”. The “red fluorescence of the mouse, IVIS spectrum” value in the assay with C57BL/6 mouse (mouse treated with acetaminophen (APAP) 300 mg/kg together with the compound) is recorded as “red fluorescence was not observed”; in the assay with C57BL/6 mouse (mouse treated with the compound alone, intravenous injection, 20 minutes) it was “strong red fluorescence was observed”. Further, the “red fluorescence in liver, kidney, lung, and spleen, IVIS spectrum” value is “red fluorescence was not observed” in the assay with C57BL/6 mouse (mouse treated with acetaminophen (APAP) together with the compound) and “strong red fluorescence was observed” with C57BL/6 mouse (mouse treated with the compound alone). The “glutathione level in neutrophils detected by the compound (FACS), sepsis mouse compared with normal mouse” value in assay [3] was “reduced”. Besides, the “red fluorescence indicating glutathione level in the red fluorescence channel” value in the assay with neutrophils (neutrophils infected with GFP tagged PA01, 10 μM compound) was “reduced”. Also, in the assay with neutrophils (neutrophils not-infected with GFP tagged PA01, 10 μM compound), the “red fluorescence in the red fluorescent channel” value is listed as “strong red fluorescence was detected”.
